Holding throughout (experiment): relative viability (nuclei count vs DMSO), 5 days (fraction); higher = more cells survive
Compound in the experiment “Everolimus + Pemetrexed”: CO[C@H]1C[C@@H]2CC[C@@H](C)[C@@](O)(O2)C(=O)C(=O)N2CCCC[C@H]2C(=O)O[C@H]([C@H](C)C[C@@H]2CC[C@@H](OCCO)[C@H](OC)C2)CC(=O)[C@H](C)/C=C(\C)[C@@H](O)[C@@H](OC)C(=O)[C@H](C)C[C@H](C)/C=C/C=C/C=C/1C [Everolimus] + Nc1nc2[nH]cc(CCc3ccc(C(=O)N[C@@H](CCC(=O)O)C(=O)O)cc3)c2c(=O)[nH]1 [Pemetrexed] (partner 0.2 µM)
The method in brief: (§1)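 After 5 days of treatment, lung cancer cells in 1536-well plates were fixed and stained in a single step (final 0.05% Triton X-100, 1% formaldehyde, 1 ug/ml Hoechst) and their nuclei counted on 4× images. Treatment had been applied by pin tool the day after seeding as one drug alone or as a fixed anchor-drug dose with five library-drug doses (not always all listed) in √10 steps. Relative viability is the nuclei count of treated wells divided by that of vehicle wells, and values are medians of duplicate plates.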

Compound in the experiment “Everolimus + Olaparib”: CO[C@H]1C[C@@H]2CC[C@@H](C)[C@@](O)(O2)C(=O)C(=O)N2CCCC[C@H]2C(=O)O[C@H]([C@H](C)C[C@@H]2CC[C@@H](OCCO)[C@H](OC)C2)CC(=O)[C@H](C)/C=C(\C)[C@@H](O)[C@@H](OC)C(=O)[C@H](C)C[C@H](C)/C=C/C=C/C=C/1C [Everolimus] + O=C(c1cc(Cc2n[nH]c(=O)c3ccccc23)ccc1F)N1CCN(C(=O)C2CC2)CC1 [Olaparib] (partner 8 µM)
Put shortly: as §1

Compound in the experiment “Everolimus + Alpelisib”: CO[C@H]1C[C@@H]2CC[C@@H](C)[C@@](O)(O2)C(=O)C(=O)N2CCCC[C@H]2C(=O)O[C@H]([C@H](C)C[C@@H]2CC[C@@H](OCCO)[C@H](OC)C2)CC(=O)[C@H](C)/C=C(\C)[C@@H](O)[C@@H](OC)C(=O)[C@H](C)C[C@H](C)/C=C/C=C/C=C/1C [Everolimus] + Cc1nc(NC(=O)N2CCC[C@H]2C(N)=O)sc1-c1ccnc(C(C)(C)C(F)(F)F)c1 [Alpelisib] (partner 2 µM)
The method in brief: as §1

Compound in the experiment “Everolimus + Bortezomib”: CO[C@H]1C[C@@H]2CC[C@@H](C)[C@@](O)(O2)C(=O)C(=O)N2CCCC[C@H]2C(=O)O[C@H]([C@H](C)C[C@@H]2CC[C@@H](OCCO)[C@H](OC)C2)CC(=O)[C@H](C)/C=C(\C)[C@@H](O)[C@@H](OC)C(=O)[C@H](C)C[C@H](C)/C=C/C=C/C=C/1C [Everolimus] + CC(C)C[C@H](NC(=O)[C@H](Cc1ccccc1)NC(=O)c1cnccn1)B(O)O [Bortezomib] (partner 0.002 µM)
The method in brief:
as §1

Turning to NCI-H2009, the relative viability in the experiment with Everolimus + Pemetrexed (first compound 0.01 µM) was found to be 0.986; with Everolimus + Pemetrexed (first compound 0.03162 µM) it was 0.98; with Everolimus + Pemetrexed (first compound 0.1 µM) it was 0.927; in the experiment with Everolimus + Pemetrexed (first compound 0.3162 µM), 0.848; in the experiment with Everolimus + Pemetrexed (first compound 1 µM), 0.771; with Everolimus + Olaparib (first compound 0.01 µM), 0.601. The relative viability in the experiment with Everolimus + Olaparib (first compound 0.03162 µM) worked out at 0.456; in the experiment with Everolimus + Olaparib (first compound 0.1 µM), 0.364; with Everolimus + Olaparib (first compound 0.3162 µM), 0.492; in the experiment with Everolimus + Olaparib (first compound 1 µM) it was 0.446; with Everolimus + Alpelisib (first compound 0.01 µM), 0.763; with Everolimus + Alpelisib (first compound 0.03162 µM), 0.741. The relative viability is 0.791 with Everolimus + Alpelisib (first compound 0.1 µM); 0.846 with Everolimus + Alpelisib (first compound 0.3162 µM); 0.906 with Everolimus + Alpelisib (first compound 1 µM); 0.739 in the experiment with Everolimus + Bortezomib (first compound 0.01 µM); 0.863 in the experiment with Everolimus + Bortezomib (first compound 0.03162 µM); 0.484 in the experiment with Everolimus + Bortezomib (first compound 0.1 µM). Also, the relative viability was 0.864 with Everolimus + Bortezomib (first compound 0.3162 µM) and 0.812 with Everolimus + Bortezomib (first compound 1 µM).
For NCI-H2023, the relative viability with Everolimus + Pemetrexed (first compound 0.01 µM) was 0.18; with Everolimus + Pemetrexed (first compound 0.03162 µM), 0.174; in the experiment with Everolimus + Pemetrexed (first compound 0.1 µM), 0.201; with Everolimus + Pemetrexed (first compound 0.3162 µM), 0.19; with Everolimus + Pemetrexed (first compound 1 µM), 0.142; with Everolimus + Olaparib (first compound 0.01 µM) it was 0.276. Moreover, the relative viability with Everolimus + Olaparib (first compound 0.03162 µM) came out at 0.294; in the experiment with Everolimus + Olaparib (first compound 0.1 µM) it was 0.253; with Everolimus + Olaparib (first compound 0.3162 µM) it was 0.256; in the experiment with Everolimus + Olaparib (first compound 1 µM), 0.296; in the experiment with Everolimus + Alpelisib (first compound 0.01 µM) it was 0.411; in the experiment with Everolimus + Alpelisib (first compound 0.03162 µM), 0.326. Also, the relative viability in the experiment with Everolimus + Alpelisib (first compound 0.1 µM) stood at 0.302; with Everolimus + Alpelisib (first compound 0.3162 µM), 0.271; with Everolimus + Alpelisib (first compound 1 µM), 0.215; in the experiment with Everolimus + Bortezomib (first compound 0.01 µM), 0.667; with Everolimus + Bortezomib (first compound 0.03162 µM) it was 0.527; in the experiment with Everolimus + Bortezomib (first compound 0.1 µM), 0.534. Besides, the relative viability in the experiment with Everolimus + Bortezomib (first compound 0.3162 µM) was 0.615; with Everolimus + Bortezomib (first compound 1 µM), 0.335.
Consider NCI-H2085, for which the relative viability stood at 0.655 in the experiment with Everolimus + Pemetrexed (first compound 0.01 µM); 0.652 in the experiment with Everolimus + Pemetrexed (first compound 0.03162 µM); 0.493 with Everolimus + Pemetrexed (first compound 0.1 µM); 0.624 with Everolimus + Pemetrexed (first compound 0.3162 µM); 0.63 with Everolimus + Pemetrexed (first compound 1 µM); 0.704 in the experiment with Everolimus + Olaparib (first compound 0.01 µM). In addition, the relative viability stood at 0.75 with Everolimus + Olaparib (first compound 0.03162 µM); 0.698 in the experiment with Everolimus + Olaparib (first compound 0.1 µM); 0.705 in the experiment with Everolimus + Olaparib (first compound 0.3162 µM); 0.583 with Everolimus + Olaparib (first compound 1 µM); 0.668 with Everolimus + Alpelisib (first compound 0.01 µM); 0.616 with Everolimus + Alpelisib (first compound 0.03162 µM). Also, the relative viability with Everolimus + Alpelisib (first compound 0.1 µM) was found to be 0.577; with Everolimus + Alpelisib (first compound 0.3162 µM), 0.622; with Everolimus + Alpelisib (first compound 1 µM) it was 0.571; with Everolimus + Bortezomib (first compound 0.01 µM), 0.956; with Everolimus + Bortezomib (first compound 0.03162 µM), 0.827; in the experiment with Everolimus + Bortezomib (first compound 0.1 µM), 0.726. Further, the relative viability with Everolimus + Bortezomib (first compound 0.3162 µM) came to 0.805; in the experiment with Everolimus + Bortezomib (first compound 1 µM), 0.711.
Regarding NCI-H2087, the relative viability with Everolimus + Pemetrexed (first compound 0.01 µM) came to 0.587; in the experiment with Everolimus + Pemetrexed (first compound 0.03162 µM) it was 0.636; with Everolimus + Pemetrexed (first compound 0.1 µM), 0.612; in the experiment with Everolimus + Pemetrexed (first compound 0.3162 µM), 0.608; with Everolimus + Pemetrexed (first compound 1 µM), 0.626; in the experiment with Everolimus + Olaparib (first compound 0.01 µM) it was 0.491. In addition, the relative viability with Everolimus + Olaparib (first compound 0.03162 µM) was 0.444; in the experiment with Everolimus + Olaparib (first compound 0.1 µM), 0.524; with Everolimus + Olaparib (first compound 0.3162 µM), 0.465; with Everolimus + Olaparib (first compound 1 µM), 0.508; with Everolimus + Alpelisib (first compound 0.01 µM) it was 0.796; with Everolimus + Alpelisib (first compound 0.03162 µM), 0.897. The relative viability was found to be 0.839 with Everolimus + Alpelisib (first compound 0.1 µM); 0.663 with Everolimus + Alpelisib (first compound 0.3162 µM); 0.657 in the experiment with Everolimus + Alpelisib (first compound 1 µM); 0.699 in the experiment with Everolimus + Bortezomib (first compound 0.01 µM); 0.957 with Everolimus + Bortezomib (first compound 0.03162 µM); 0.625 with Everolimus + Bortezomib (first compound 0.1 µM). Further, the relative viability in the experiment with Everolimus + Bortezomib (first compound 0.3162 µM) came to 0.75; in the experiment with Everolimus + Bortezomib (first compound 1 µM) it was 0.837.
For the cell line NCI-H2126, the relative viability is 0.531 in the experiment with Everolimus + Pemetrexed (first compound 0.01 µM); 0.522 with Everolimus + Pemetrexed (first compound 0.03162 µM); 0.497 with Everolimus + Pemetrexed (first compound 0.1 µM); 0.561 with Everolimus + Pemetrexed (first compound 0.3162 µM); 0.535 in the experiment with Everolimus + Pemetrexed (first compound 1 µM); 0.714 with Everolimus + Olaparib (first compound 0.01 µM). Also, the relative viability was determined as 0.583 with Everolimus + Olaparib (first compound 0.03162 µM); 0.502 in the experiment with Everolimus + Olaparib (first compound 0.1 µM); 0.602 with Everolimus + Olaparib (first compound 0.3162 µM); 0.603 with Everolimus + Olaparib (first compound 1 µM); 0.509 in the experiment with Everolimus + Alpelisib (first compound 0.01 µM); 0.466 with Everolimus + Alpelisib (first compound 0.03162 µM). Further, the relative viability worked out at 0.435 with Everolimus + Alpelisib (first compound 0.1 µM); 0.473 with Everolimus + Alpelisib (first compound 0.3162 µM); 0.458 with Everolimus + Alpelisib (first compound 1 µM); 0.736 with Everolimus + Bortezomib (first compound 0.01 µM); 0.668 with Everolimus + Bortezomib (first compound 0.03162 µM); 0.66 with Everolimus + Bortezomib (first compound 0.1 µM). Moreover, the figures for the relative viability in the experiment with Everolimus + Bortezomib (first compound 0.3162 µM) and with Everolimus + Bortezomib (first compound 1 µM) were 0.714 and 0.738, respectively.
In the case of NCI-H2228, the relative viability with Everolimus + Pemetrexed (first compound 0.01 µM) came out at 0.252; in the experiment with Everolimus + Pemetrexed (first compound 0.03162 µM), 0.313; with Everolimus + Pemetrexed (first compound 0.1 µM) it was 0.312; in the experiment with Everolimus + Pemetrexed (first compound 0.3162 µM), 0.285; with Everolimus + Pemetrexed (first compound 1 µM) it was 0.243; with Everolimus + Olaparib (first compound 0.01 µM), 0.658. Further, the relative viability was 0.289 with Everolimus + Olaparib (first compound 0.03162 µM); 0.336 with Everolimus + Olaparib (first compound 0.1 µM); 0.266 with Everolimus + Olaparib (first compound 0.3162 µM); 0.311 with Everolimus + Olaparib (first compound 1 µM); 0.463 with Everolimus + Alpelisib (first compound 0.01 µM); 0.431 with Everolimus + Alpelisib (first compound 0.03162 µM). Besides, the relative viability came out at 0.418 with Everolimus + Alpelisib (first compound 0.1 µM); 0.385 with Everolimus + Alpelisib (first compound 0.3162 µM); 0.266 in the experiment with Everolimus + Alpelisib (first compound 1 µM); 0.705 with Everolimus + Bortezomib (first compound 0.01 µM); 0.7 with Everolimus + Bortezomib (first compound 0.03162 µM); 0.645 with Everolimus + Bortezomib (first compound 0.1 µM). In addition, the relative viability in the experiment with Everolimus + Bortezomib (first compound 0.3162 µM) amounted to 0.515; with Everolimus + Bortezomib (first compound 1 µM), 0.614.
For NCI-H2347, the relative viability was 0.406 with Everolimus + Pemetrexed (first compound 0.01 µM); 0.442 with Everolimus + Pemetrexed (first compound 0.03162 µM); 0.486 with Everolimus + Pemetrexed (first compound 0.1 µM); 0.412 in the experiment with Everolimus + Pemetrexed (first compound 0.3162 µM); 0.434 with Everolimus + Pemetrexed (first compound 1 µM); 0.565 in the experiment with Everolimus + Olaparib (first compound 0.01 µM). Further, the relative viability with Everolimus + Olaparib (first compound 0.03162 µM) is 0.54; with Everolimus + Olaparib (first compound 0.1 µM), 0.527; with Everolimus + Olaparib (first compound 0.3162 µM), 0.525; in the experiment with Everolimus + Olaparib (first compound 1 µM) it was 0.505; in the experiment with Everolimus + Alpelisib (first compound 0.01 µM), 0.979; with Everolimus + Alpelisib (first compound 0.03162 µM), 0.872. The relative viability was 0.564 with Everolimus + Alpelisib (first compound 0.1 µM); 0.783 in the experiment with Everolimus + Alpelisib (first compound 0.3162 µM); 0.826 with Everolimus + Alpelisib (first compound 1 µM); 0.749 in the experiment with Everolimus + Bortezomib (first compound 0.01 µM); 0.658 in the experiment with Everolimus + Bortezomib (first compound 0.03162 µM); 0.752 with Everolimus + Bortezomib (first compound 0.1 µM). Moreover, the values for the relative viability in the experiment with Everolimus + Bortezomib (first compound 0.3162 µM) and with Everolimus + Bortezomib (first compound 1 µM) were 0.602 and 0.528, respectively.
